From US10723695B2, “Microbiocidal phenylamidine derivatives” (SYNGENTA PARTICIPATIONS AG, priority 2015, dated 2020)

Legend:
[1] = system: Blumeria graminis f. sp. tritici (Erysiphe graminis f. sp. tritici); experiment: Blumeria graminis f. sp. tritici / wheat / leaf disc preventative (powdery mildew on wheat); type: in vivo; settings: foliar, wheat leaf segments cv. Kanzler, compared to untreated control leaf disks, read-out: disease control
Excerpt: Blumeria graminis f. sp. tritici (Erysiphe graminis f. sp. tritici)/Wheat/Leaf Disc Preventative (Powdery Mildew on Wheat) Wheat leaf segments cv. Kanzler were placed on agar in a multiwell plate (24-well format) and sprayed with the formulated test compound diluted in water. The leaf disks were inoculated by shaking powdery mildew infected plants above the test plates 1 day after application.

Phakopsora pachyrhizi = Phakopsora pachyrhizi / soybean / leaf disk preventative (soybean rust); type: in vivo; settings: foliar, soybean leaf disks, compared to untreated control leaf disks, read-out: disease control
Outline: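 Four-week-old soybean plants sprayed with formulated compound in water; leaf disks cut 1 day later, inoculated on the lower surface with spore suspension. Held 24-36 h dark at 20° C, 75% rh, then 20° C with 12 h light/day; % diseased disk area scored 12-14 days after application.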

[2] = system: Puccinia recondita f. sp. tritici; experiment: Puccinia recondita f. sp. tritici / wheat / leaf disc preventative (brown rust); type: in vivo; settings: foliar, wheat leaf segments cv. Kanzler, compared to untreated control leaf disks, read-out: disease control
Outline: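 Wheat leaf segments (cv. Kanzler) on agar were sprayed preventatively with formulated compound diluted in water and inoculated with spores 1 day later. They were incubated at 19 °C, 75% rh, 12 h light/12 h dark. Percent disease control versus untreated was scored 7-9 days after application.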

[3] = system: Puccinia recondita f. sp. tritici; experiment: Puccinia recondita f. sp. tritici / wheat / leaf disc curative (brown rust); type: in vivo; settings: foliar, 24 h, wheat leaf segments cv. Kanzler, curative (applied 1 day after inoculation), compared to untreated control leaf disks, read-out: disease control
Method: Puccinia recondita f. sp. tritici/Wheat/Leaf Disc Curative (Brown Rust) Wheat leaf segments cv. Kanzler are placed on agar in multiwell plates (24-well format). The leaf segments are inoculated with a spore suspension of the fungus. Plates were stored in darkness at 19° C. and 75% rh. The formulated test compound diluted in water was applied 1 day after inoculation.

| melting point | Compound | pest or weed control at 200 ppm [1] | pest or weed control at 200 ppm (Phakopsora pachyrhizi) | pest or weed control at 200 ppm [2] | pest or weed control at 200 ppm [3] |
| --- | --- | --- | --- | --- | --- |
| 64 to 72 °C | CCN(C)/C=N/c1cc(OC)c(C(O)(C2CC2)C(F)(F)F)cc1C (centres unmarked) [Compound E1.052] | ≥ 80% | ≥ 80% | ≥ 80% | ≥ 80% |
| 110.5 to 111.7 °C | COc1cc(/N=C/N(C)C(C)C)c(C)cc1[C@](O)(c1ccccc1)C(F)(F)F [Compound E1.027] | ≥ 80% | ≥ 80% | ≥ 80% | ≥ 80% |
| 96 to 98 °C | CCN(C)/C=N/c1cc(OC)c(C(O)(c2ccccc2F)C(F)(F)F)cc1C (centres unmarked) [Compound E1.034] | ≥ 80% | ≥ 80% | ≥ 80% | ≥ 80% |
| 67 to 71 °C | CCN(C)/C=N/c1cc(OC)c(C(O)(c2ccc(OC)cc2)C(F)(F)F)cc1C (centres unmarked) [Compound E1.011] | ≥ 80% | ≥ 80% | ≥ 80% | ≥ 80% |
| 78 to 79 °C | COc1cc(/N=C/N(C)C(C)C)c(C)cc1C(O)(C(C)C)C(F)(F)F (centres unmarked) [Compound E1.067] | ≥ 80% | ≥ 80% | ≥ 80% | ≥ 80% |
| 87 to 89 °C | CCN(C)/C=N/c1cc(OC)c(C(O)(CC)c2ccccc2)cc1C (centres unmarked) [Compound E1.126] | ≥ 80% | ≥ 80% | ≥ 80% | ≥ 80% |
| 73 to 76 °C | CCC(O)(c1cc(C)c(/N=C/N(C)C(C)C)cc1OC)C(F)(F)F (centres unmarked) [Compound E1.063] | ≥ 80% | ≥ 80% | ≥ 80% | ≥ 80% |
| 90 to 95 °C | C=C(C)CC(O)(c1cc(C)c(/N=C/N(C)C(C)C)cc1OC)C(F)(F)F (centres unmarked) [Compound E1.082] | ≥ 80% | ≥ 80% | ≥ 80% | ≥ 80% |
| 125 to 127 °C | CCN(C)/C=N/c1cc(OC)c(C(O)(c2cccc(C)c2)C(F)(F)F)cc1C (centres unmarked) [Compound E1.016] | ≥ 80% | ≥ 80% | ≥ 80% | ≥ 80% |
| 45 to 50 °C | C=CCC(O)(c1cc(C)c(/N=C/N(C)C(C)C)cc1OC)C(F)(F)F (centres unmarked) [Compound E1.084] | ≥ 80% | ≥ 80% | ≥ 80% | ≥ 80% |
| 98 to 100 °C | CCN(C)/C=N/c1cc(OC)c(C(O)(c2cccc(Br)c2)C(F)(F)F)cc1C (centres unmarked) [Compound E1.023] | ≥ 80% | ≥ 80% | ≥ 80% | ≥ 80% |
| 126 to 128 °C | CCN(C)/C=N/c1cc(OC)c(C(O)(C(F)(F)F)C(F)(F)F)cc1C [Compound E1.001] | ≥ 80% | ≥ 80% | ≥ 80% | ≥ 80% |
| 38 to 40 °C | CCN(C)/C=N/c1cc(OC)c(C(O)(c2cccc(C#N)c2)C(F)(F)F)cc1C (centres unmarked) [Compound E1.022] | ≥ 80% | ≥ 80% | ≥ 80% | ≥ 80% |
| 102 to 104 °C | CCN(C)/C=N/c1cc(OC)c(C(O)(c2ccc(F)cc2)C(F)(F)F)cc1C (centres unmarked) [Compound E1.004] | ≥ 80% | ≥ 80% | ≥ 80% | ≥ 80% |
| 82 to 85 °C | CCN(C)/C=N/c1cc(OC)c(C(O)(Cc2cc(C)ncn2)C(F)(F)F)cc1C (centres unmarked) [Compound E1.099] | ≥ 80% | ≥ 80% | ≥ 80% | ≥ 80% |
| 110 to 113 °C | C=C(C)C(O)(c1cc(C)c(/N=C/N(C)C(C)C)cc1OC)C(F)(F)F (centres unmarked) [Compound E1.081] | ≥ 80% | ≥ 80% | ≥ 80% | ≥ 80% |
